Experimental data: patent US20120315648A1, “METHOD OF IDENTIFICATION OF CELLS THAT SHOW SENSITIVITY TO MODULATION OF SIGNALING MEDIATED BY A FIBROBLAST GROWTH FACTOR RECEPTOR OR A VARIANT THEREOF” (priority 2007, published 2012)
Entries after “also recorded” stand apart in the source; their conditions may differ.

Experiments:
[1] = test system: RT4 bladder cancer cell line; test: Cell proliferation assay (methylene blue, 96-well), RT4; type: cell-based; conditions: Homo sapiens; RT4 bladder cancer cells, 72 h, average of several independent assays; read-out: IC50 (nM) ± SD, proliferation inhibition
Protocol: (§1) The bladder carcinoma cell lines are grown in MEM EBS (Minimum Essential Medium with Earls Basal Salts) (Amimed, Allschwil, Switzerland, #1-31F0-I) supplemented with 1% L-glutamine (Amimed #5-10K00-H), 1% MEM NEAA (MEM Non-essential Amino Acid Solution) (Amimed #5-13K00-H), 1% Na- pyruvate (Amimed #5-60F00-H) and 10% FCS (Gibco, Invitrogen AG, Basel, Schweiz, #10082-147).
(§2) In detail, FGF-R1, FGF-R2 and FGF-R4 expression is determined by Western Blot using specific antibodies, respectively: sc-121 (Santa Cruz), sc-122 (Santa Cruz) and sc-124 (Santa Cruz). […] Cell proliferation is measured in 96-well plates. […] Upon addition of 200 μl/well HCl (3%) and incubation for 30 min at RT on a plate shaker, the Optical Density (OD) at 650 nm is measured. The concentration of inhibitor 1 providing 50% of proliferation inhibition is calculated using Excel module.
(§3) The FGF-R dependency as well as sensitivity to inhibitor 1 and/or to inhibitor 2 for each of the indicated cell lines is characterized as indicated above. The effect of inhibitor 1 and inhibitor 2 on cell viability is assessed by means of proliferation assays; the IC50s shown are the average IC50s of several independent assays (their number given by N).

[2] = test system: RT112 bladder cancer cell line; test: Cell proliferation assay (methylene blue, 96-well), RT112; type: cell-based; conditions: Homo sapiens, RT-112; RT112 bladder cancer cells, 72 h, average of several independent assays; read-out: IC50 (nM) ± SD, proliferation inhibition
Protocol: as §1, §2, §3

[3] = test system: HT1197 bladder carcinoma cell line; test: Cell proliferation assay (methylene blue, 96-well), HT1197; type: cell-based, human; conditions: for sensitivity of growth to inhibition (in words): HT1197 cells; for IC50: Homo sapiens, HT1197 bladder cancer cells, 72 h, read-out: IC50 (nM) ± SD, proliferation inhibition
Protocol: HT1197: human urinary bladder transitional cell carcinoma established from a recurrent bladder carcinoma, histological grade G4, stage T2 (Masters et al. 1986, loc. cit.). Cells are obtained from ATCC # CRL-1473.
as §1
(§4) In detail, FGF-R1, FGF-R2 and FGF-R4 expression is determined by Western Blot using specific antibodies, respectively: sc-121 (Santa Cruz), sc-122 (Santa Cruz) and sc-124 (Santa Cruz). To determine the expression of FGF-R3, first FGF-R3 is immunoprecipitated with the antibody F-0425 from Sigma, and the immunocomplexes are subjected to Western Blot using the antibody F-0425 from Sigma. Cell proliferation is measured in 96-well plates. The cells are seeded in a volume of 100 μl per well in the growth media given above. For RT 112, RT4 and SUM52 8500 cells/well are seeded, for VMCUB1, J82, HT1197 and KMS11, 5000 cells/well are seeded, for OPM2 30000 cells/well are seeded. Medium containing FGF-R inhibitor 1, FGFR inhibitor 2 or (as control) DMSO is added 24 h after seeding, respectively. After 72 h, cells are fixed by addition of 25 μl/well glutaraldehyde (20%) for 10 min at room temperature (RT). Cells are then washed twice with 200 μl/well H2O and 100 μl Methylene Blue (0.05%) are added. After incubation for 10 min at RT, cells are washed 3× with 200 μl/well H2O. Upon addition of 200 μl/well HCl (3%) and incubation for 30 min at RT on a plate shaker, the Optical Density (OD) at 650 nm is measured. The concentration of inhibitor 1 providing 50% of proliferation inhibition is calculated using Excel module.
as §3

[4] = test system: FRS-2 tyrosine phosphorylation in RT4 cells; test: FRS-2 tyrosine phosphorylation after FGF-R inhibitor treatment (IP/Western Blot), RT4 cells; type: cell-based, human; conditions: RT4 cells treated with inhibitor, FIG. 2A
Protocol: FIG. 2: Comparative analysis of FRS-2 phosphorylation following treatment with the FGF-R inhibitor PD173074 (inhibitor 1, see Methods in Example 1) in the RT4 cells, in the case of RT112 with TKI258/CHIR258, 4-Amino-5-fluoro-3[6-(4-methyl-1-piperazinyl)-1H-benzimidazol-2-yl]-2(1H)-quinolinone (inhibitor 2, see Methods in Example 1). The cell lines indicated are treated as shown. FRS-2 tyrosine phosphorylation is determined by immunoprecipitation with a specific FRS-2 antibody followed by […] Western Blotting, or by western blot using an antibody that detects phosphorylated Tyr196 on FRS2. […] Inhib. 1=inhibitor 1, Inhib. 2=inhibitor 2, DMSO=dimethyl sulfoxide.
(§5) Cells are solubilized in 1% Triton extraction buffer containing protease and phosphatase inhibitors (“lysis buffer” 50 mM Tris pH 7.5, 150 mM NaCl, 1 mM EGTA, 5 mM EDTA, 1% Triton, 2 mM NaVanadate, 1 mM PMSF and protease inhibition cocktail from Hoffmann-LaRoche, Basel, Switzerland, #1187358001). Lysates are clarified by centrifugation at 12000×g for 15 min and protein concentration is determined using the DC Protein Assay Reagents (Bio Rad, Bio-Rad Laboratories, Inc., Hercules, Calif., USA, #500-0116) (an assay based on the method of Bradford, M., see Anal. Biochem., 72, 248 (1976), employing Coomassie Blue®, ICI) and a Bovine Serum Albumin (BSA) standard. […]

[5] = test system: J82 bladder carcinoma cell line; test: Cell proliferation assay (methylene blue, 96-well), J82; type: cell-based, human; conditions: for IC50: Homo sapiens, J82 bladder cancer cells, 72 h, read-out: IC50 (nM) ± SD, proliferation inhibition; for sensitivity of growth to inhibition (in words): J82 cells
Protocol: J82: human urinary bladder transitional cell carcinoma established from a primary bladder carcinoma, histological grade G3, stage T3 (Masters et al. 1986, loc. cit.). Cells are obtained from ATCC # HTB-1.
as §1, §4, §3

[6] = test system: VMCUB1 bladder carcinoma cell line; test: Cell proliferation assay (methylene blue, 96-well), VMCUB1; type: cell-based, human; conditions: for IC50: Homo sapiens, VM-CUB-1, VMCUB1 bladder cancer cells, 72 h, read-out: IC50 (nM) ± SD, proliferation inhibition; for sensitivity of growth to inhibition (in words): VMCUB1 cells
Protocol: VMCUB-1: human urinary bladder transitional cell carcinoma established from a primary bladder carcinoma. Stage and histological grade are not recorded (Masters et al. 1986, loc. cit.). Cells are obtained from DSMZ ACC #400.
as §1, §4, §3

[7] = test system: OPM2 multiple myeloma cell line; test: Cell proliferation assay (methylene blue, 96-well), OPM2; type: cell-based; conditions: Homo sapiens, OPM-2; OPM2 multiple myeloma cells, 72 h; read-out: IC50 (nM) ± SD, proliferation inhibition
From the text: (§6) OPM2 and KMS11: human multiple myeloma (MM) cell lines derived from end-stage disease patients. OPM2 cells are obtained from DSMZ ACC #50.
(§7) KMS11 cells are provide by Dr. T Otsuki, Kawasaki Medical School, Okayama, Japan. Both cell lines are reported to carry the t(4,14) translocation and express a mutated, constitutively activated form of FGF-R3. In particular, OPM2 cells harbour a mutation in the ATP binding pocket in the kinase domain, which results in a change of lysine in position 650 into glutamic acid. KMS11 cells harbor a mutation in the extracellular domain of the receptor changing tyrosine in position 373 into cysteine. Both cell lines are grown in RPMI 1640 (Gibco #21875) supplemented with 1% L-glutamine (Amimed #5-10K00-H) and 20% FCS (Gibco #10082-147).
as §2, with “module. […]” for “module.”

[8] = test system: KMS11 multiple myeloma cell line; test: Cell proliferation assay (methylene blue, 96-well), KMS11; type: cell-based; conditions: Homo sapiens, KMS-11; KMS11 multiple myeloma cells, 72 h; read-out: IC50 (nM) ± SD, proliferation inhibition
From the text: as §6, §7
as §2, with “module. […]” for “module.”

[9] = test system: MAPK activation in RT112 cells; test: MAPK activation upon growth factor stimulation (anti-phosphoMAPK Western Blot), RT112 cells; type: cell-based, human; conditions: EGF 10 ng/ml, insulin 5 μg/ml, FIG. 3
Protocol: (§8) FIG. 3: Comparative analysis of FRS-2 tyrosine phosphorylation upon growth factor stimulation: The bladder cancer cell lines RT112 and […] are stimulated with aFGF/heparin (50 ng/ml//5 μg/ml), EGF (10 ng/ml) (from R & D Systems, Inc., Minneapolis, Minn., USA; #236-EG-200) or insulin (5 μg/ml) (Sigma, Sigma-Aldrich, Inc., St. Louis, Mo., USA; #1882). Cells are lysed and total protein lysates are recovered. FRS-2 tyrosine phosphorylation is determined by immunoprecipitation followed by anti-pTyr antibody Western Blotting, using antibodies mentioned in Table 1 of Example 1. […] Equal amount of MAPK protein is monitored by Western Blotting with α-MAPK (MAPK in Table 1 in Example 1). […]
as §5

[10] = test system: FRS-2 tyrosine phosphorylation in RT112 cells; test: FRS-2 tyrosine phosphorylation upon growth factor stimulation (IP/Western Blot), RT112 cells; type: cell-based, human; conditions: aFGF/heparin 50 ng/ml//5 μg/ml, EGF 10 ng/ml, insulin 5 μg/ml, FIG. 3
Protocol: as §8, §5

[11] = test system: FRS-2 tyrosine phosphorylation in RT112 cells; test: FRS-2 tyrosine phosphorylation after FGF-R inhibitor treatment (IP/Western Blot), RT112 cells; type: cell-based, human; conditions: RT112 cells treated with inhibitor, FIG. 2B
Protocol: The cell lines indicated are treated as shown. FRS-2 tyrosine phosphorylation is determined by immunoprecipitation with a specific FRS-2 antibody followed by anti-FRS-2 Western Blotting, or by western blot using an antibody that detects phosphorylated Tyr196 on FRS2.
Immunocomplexes are collected with protein A- or protein G-sepharose (Sigma, # P-9424; Sigma, # P-3296) and washed 3 × with lysis buffer. Bound proteins are released by boiling in 2 × sample buffer (20% SDS, 20% glycerol, 160 mM Tris pH 6.8, 4% β-mercaptoethanol, 0.04% bromo-phenol blue). […]

[12] = test system: SUM52 breast carcinoma cell line; test: Cell proliferation assay (methylene blue, 96-well), SUM52; type: cell-based; conditions: Homo sapiens; SUM52 breast cancer cells, 72 h; read-out: IC50 (nM) ± SD, proliferation inhibition
Protocol: as §4, with “After 72 h, cells are fixed by addition of 25 μl/well glutaraldehyde (20%) for 10 min at room temperature (RT). Cells are then washed twice with 200 μl/well H2O and 100 μl Methylene Blue (0.05%) are added. After incubation for 10 min at RT, cells are washed 3× with 200 μl/well H2O.” left out
as §3

IC50 [1] | IC50 [2] | IC50 [3] | IC50 [5] | IC50 [6] | IC50 [7] | IC50 [8] | IC50 [12] | Molecule | sensitivity of growth to inhibition (in words) [3] | effect on FRS-2 tyrosine phosphorylation [4] | sensitivity of growth to inhibition (in words) [5] | sensitivity of growth to inhibition (in words) [6] | MAPK activation (pMAPK) [9] | induction of FRS-2 tyrosine phosphorylation [10] | effect on FRS-2 tyrosine phosphorylation [11]
28 ± 8 nM | 14 ± 3 nM | > 3000 nM | > 3000 nM | > 3000 nM | 148 ± 31 nM | 50 ± 14 nM | – | CCN(CC)CCCCNc1ncc2cc(-c3cc(OC)cc(OC)c3)c(NC(=O)NC(C)(C)C)nc2n1 [Inhibitor 1, PD173074] | resistant to inhibition | abolish FRS-2 tyrosine phosphorylation; also recorded: completely inhibits FRS-2 phosphorylation | resistant to inhibition | resistant to inhibition | – | – | –
– | – | – | – | – | – | – | – | insulin | – | – | – | – | activate MAPK | fail to induce phospho-FRS-2 | –
134 ± 58 nM | 60 ± 20 nM | > 3000 nM | > 3000 nM | > 2000 nM | – | 93 nM | 190 ± 58 nM | CN1CCN(c2ccc3nc(-c4c(N)c5c(F)cccc5[nH]c4=O)[nH]c3c2)CC1 [Inhibitor 2, 4-Amino-5-fluoro-3[6-(4-methyl-1-piperazinyl)-1H-benzimidazol-2-yl]-2(1H)-quinolinone] | resistant to inhibition | – | resistant to inhibition | resistant to inhibition | – | – | abolish FRS-2 tyrosine phosphorylation
